From patent US8623870B2, “Pyridazinone derivatives” (Merck Patent GmbH, priority 2009, dated 2014)

Assays:
[1] = target: T1, Met kinase (Homo sapiens, UniProt P08581); experiment: Met kinase inhibition (cell); format: cell-based
Target sequence in this assay (P08581 25-1390): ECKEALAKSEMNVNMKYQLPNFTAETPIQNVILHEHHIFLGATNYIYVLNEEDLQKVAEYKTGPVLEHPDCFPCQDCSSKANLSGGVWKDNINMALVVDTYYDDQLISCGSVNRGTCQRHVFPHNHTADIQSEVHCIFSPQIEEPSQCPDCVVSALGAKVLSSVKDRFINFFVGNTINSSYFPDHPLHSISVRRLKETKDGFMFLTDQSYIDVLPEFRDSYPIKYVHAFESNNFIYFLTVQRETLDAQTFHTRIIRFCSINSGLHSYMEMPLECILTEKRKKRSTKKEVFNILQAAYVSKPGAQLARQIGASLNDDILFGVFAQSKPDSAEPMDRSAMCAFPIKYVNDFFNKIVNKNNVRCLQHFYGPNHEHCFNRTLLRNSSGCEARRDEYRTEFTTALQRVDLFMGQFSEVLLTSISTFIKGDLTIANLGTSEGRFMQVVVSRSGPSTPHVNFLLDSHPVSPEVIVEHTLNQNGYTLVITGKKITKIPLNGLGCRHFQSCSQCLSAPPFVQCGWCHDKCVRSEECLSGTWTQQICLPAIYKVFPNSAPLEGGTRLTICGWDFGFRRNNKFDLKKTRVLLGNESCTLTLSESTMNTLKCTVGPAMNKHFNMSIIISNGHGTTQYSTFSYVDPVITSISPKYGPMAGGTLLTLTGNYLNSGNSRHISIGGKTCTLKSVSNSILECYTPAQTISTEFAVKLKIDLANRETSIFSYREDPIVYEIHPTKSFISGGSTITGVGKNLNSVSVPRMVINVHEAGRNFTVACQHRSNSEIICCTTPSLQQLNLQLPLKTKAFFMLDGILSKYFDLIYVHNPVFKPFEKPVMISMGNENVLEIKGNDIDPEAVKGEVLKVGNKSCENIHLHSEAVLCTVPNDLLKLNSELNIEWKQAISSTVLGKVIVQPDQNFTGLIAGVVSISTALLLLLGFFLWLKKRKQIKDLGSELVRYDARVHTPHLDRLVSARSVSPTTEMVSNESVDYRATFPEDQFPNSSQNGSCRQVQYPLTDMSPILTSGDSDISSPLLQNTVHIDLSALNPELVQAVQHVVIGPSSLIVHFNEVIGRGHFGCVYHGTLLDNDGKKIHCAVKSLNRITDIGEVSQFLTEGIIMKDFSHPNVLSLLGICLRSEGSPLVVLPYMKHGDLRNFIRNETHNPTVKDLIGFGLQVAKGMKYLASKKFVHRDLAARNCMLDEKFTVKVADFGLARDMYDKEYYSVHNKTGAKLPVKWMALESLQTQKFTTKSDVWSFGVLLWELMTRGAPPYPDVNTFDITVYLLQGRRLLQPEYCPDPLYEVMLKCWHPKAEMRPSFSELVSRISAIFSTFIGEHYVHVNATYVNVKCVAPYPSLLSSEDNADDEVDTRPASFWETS

[2] = target: T1, Met kinase; experiment: Met kinase inhibition, flashplate method (enzyme); format: biochemical; set-up: 6His (N); purchased Upstate 14-526; host or cells: Sf21 insect cells (S. frugiperda), baculovirus
From the text: According to the manufacturer's data (Met, active, upstate, catalogue No. 14-526), Met kinase is expressed for the purposes of protein production in insect cells (Sf21; S. frugiperda) and subsequent affinity-chromatographic purification as “N-terminal 6His-tagged” recombinant human protein in a baculovirus expression vector.
The test plates used are 96-well Flashplate® microtitre plates from Perkin Elmer (Cat. No. SMP200). The components of the kinase reaction described below are pipetted into the assay plate. The Met kinase and the substrate poly Ala-Glu-Lys-Tyr, (pAGLT, 6:2:5:1), are incubated for 3 hrs at room temperature with radioactively labelled ^33P-ATP in the presence and absence of test substances in a total volume of 100 μl. The reaction is terminated using 150 μl of a 60 mM EDTA solution. After incubation for a further 30 min at room temperature, the supernatants are filtered off with suction, and the wells are washed three times with 200 μl of 0.9% NaCl solution each time. The measurement of the bound radioactivity is carried out by means of a scintillation measuring instrument (Topcount NXT, Perkin-Elmer).
The full value used is the inhibitor-free kinase reaction. This should be approximately in the range 6000-9000 cpm. The pharmacological zero value used is staurosporin in a final concentration of 0.1 mM. The inhibitory values (IC50) are determined using the RS1_MTS program.
• 30 μl of assay buffer • 10 μl of substance to be tested in assay buffer with 10% of DMSO • 10 μl of ATP (final concentration 1 μM cold, 0.35 μCi of ^33P-ATP) • 50 μl of Met kinase/substrate mixture in assay buffer; • (10 ng of enzyme/well, 50 ng of pAGLT/well)
Assay Buffer: • 50 mM HEPES • 3 mM magnesium chloride • 3 μM sodium orthovanadate • 3 mM manganese(II) chloride • 1 mM dithiothreitol (DTT) • pH=7.5 (to be set using sodium hydroxide)
Stop Solution: • 60 mM Titriplex III (EDTA) • ^33P-ATP: Perkin-Elmer; • Met kinase: Upstate, Cat. No. 14-526, Stock 1 μg/10 μl; spec. activity 954 U/mg; • Poly-Ala-Glu-Lys-Tyr, 6:2:5:1: Sigma Cat. No. P1152 In-vivo Tests
Target sequence in this assay (P08581 974-1390 limits assumed): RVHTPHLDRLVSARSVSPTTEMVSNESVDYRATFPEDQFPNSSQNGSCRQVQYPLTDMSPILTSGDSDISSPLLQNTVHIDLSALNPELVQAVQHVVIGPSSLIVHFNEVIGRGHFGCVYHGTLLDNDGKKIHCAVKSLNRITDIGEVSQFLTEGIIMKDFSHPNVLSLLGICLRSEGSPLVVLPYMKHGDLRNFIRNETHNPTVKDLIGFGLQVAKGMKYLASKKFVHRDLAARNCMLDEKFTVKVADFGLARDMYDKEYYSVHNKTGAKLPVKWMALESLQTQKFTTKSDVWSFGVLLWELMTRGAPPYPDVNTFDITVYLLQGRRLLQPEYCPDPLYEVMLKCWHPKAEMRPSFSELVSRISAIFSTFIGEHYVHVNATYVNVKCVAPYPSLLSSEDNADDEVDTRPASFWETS

Row | IC50 [1] [nM] | IC50 [2] [nM] | Compound
1 | 1 to 100 | 1 to 100 | O=c1ccc(-c2cc(F)cc(F)c2)nn1Cc1cccc(-c2ncc(-c3cnn(C4CCNCC4)c3)s2)c1 [Compound A1, 6-(3,5-difluorophenyl)-2-{3-[5-(1-piperidin-4-yl-1H-pyrazol-4-yl)thiazol-2-yl]benzyl}-2H-pyridazin-3-one]
2 | 1 to 100 | 1 to 100 | O=c1ccc(-c2cccc(F)c2)nn1Cc1cccc(-c2ncc(-c3cnn(C4CCNCC4)c3)s2)c1 [Compound A2, 6-(3-fluorophenyl)-2-{3-[5-(1-piperidin-4-yl-1H-pyrazol-4-yl)thiazol-2-yl]benzyl}-2H-pyridazin-3-one]
3 | 1 to 100 | 1 to 100 | O=c1ccc(-c2cc(F)cc(F)c2)nn1Cc1cccc(-c2ncc(-c3cnn(C4CCNCC4)c3)o2)c1 [Compound A6, 6-(3,5-difluorophenyl)-2-{3-[5-(1-piperidin-4-yl-1H-pyrazol-4-yl)oxazol-2-yl]benzyl}-2H-pyridazin-3-one]
4 | 1 to 100 | 1 to 100 | Cn1cc(-c2nc(-c3cccc(Cn4nc(-c5cc(F)cc(F)c5)ccc4=O)c3)no2)cn1 [Compound A8, 6-(3,5-difluorophenyl)-2-{3-[5-(1-methyl-1H-pyrazol-4-yl)-1,2,4-oxadiazol-3-yl]benzyl}-2H-pyridazin-3-one]
5 | 100 to 10000 | – | O=c1ccc(-c2cc(F)cc(F)c2)nn1Cc1cccc(-c2noc(-c3ccco3)n2)c1 [Compound A9, 6-(3,5-difluorophenyl)-2-[3-(5-furan-2-yl-1,2,4-oxadiazol-3-yl)benzyl]-2H-pyridazin-3-one]
6 | 1 to 100 | 1 to 100 | Cc1ccc(-c2nc(-c3cccc(Cn4nc(-c5cc(F)cc(F)c5)ccc4=O)c3)no2)cn1 [Compound A10, 6-(3,5-difluorophenyl)-2-{3-[5-(6-methylpyridin-3-yl)-1,2,4-oxadiazol-3-yl]-benzyl}-2H-pyridazin-3-one]
